Reference: US20240083857A1, “2-Methyl-Quinazolines” (Bayer Pharma Aktiengesellschaft, priority 2017, published 2024)

Experiments:
[1] = target: human SOS1 (nucleotide exchange of K-Ras^G12C) (Homo sapiens, UniProt Q07889); assay: Biochemical assay 2: K-Ras^G12C activation assay by hSOS1 at high GTP concentration (HTRF); details: high GTP; for IC50: read-out: Assay 2 (KRAS-Activation by SOS high GTP) activity expressed as IC50
[2] = target: human SOS1 (loading of human K-Ras^G12C-GDP with fluorescent GTP-analog) (Homo sapiens, UniProt Q07889); assay: Biochemical assay 3: K-Ras^G12C activation assay by hSOS1 (HTRF); details: no GTP; for IC50: read-out: Assay 3 (KRAS-Activation by SOS no GTP) activity expressed as IC50

SMILES	IC50 [1] [nM]	IC50 [2] [nM]	inhibition at 20 µM ([1]; read-out: Assay 2 (KRAS-Activation by SOS high GTP) activity expressed as % inhibition at 20 μM, at 20 μM) [%]	inhibition at 20 µM ([2]; read-out: Assay 3 (KRAS-Activation by SOS no GTP) activity expressed as % inhibition at 20 μM, at 20 μM) [%]
COc1cc2nc(C)nc(N[C@H](C)c3ccc(-c4ccccc4CCN)s3)c2cc1OC (stereo in doubt) [Example 357, N-[1-{5-[2-(2-aminoethyl)phenyl]thiophen-2-yl}ethyl]-6,7-dimethoxy-2-methylquinazolin-4-amine]	48.8	69.2		
COc1cc2nc(C)nc(NC(C)c3ccc(-c4ccccc4[C@@H](C)NC(=O)OC(C)(C)C)s3)c2cc1OC (stereo in doubt) [Example 358, tert-butyl {1-[2-(5-{1-[(6,7-dimethoxy-2-methylquinazolin-4-yl)amino]ethyl}thiophen-2-yl)phenyl]ethyl}carbamate]	1530	2450		
COc1cc2nc(C)nc(NC(C)c3ccc(-c4ccccc4[C@@H](C)N)s3)c2cc1OC (stereo in doubt) [Example 359, N-[1-(5-{2-[1-aminoethyl]phenyl}thiophen-2-yl)ethyl]-6,7-dimethoxy-2-methylquinazolin-4-amine]	200	299		
COc1cc2nc(C)nc(NC(C)c3ccc(-c4ccccc4[C@H](C)N)s3)c2cc1OC (stereo in doubt) [Example 360, N-[1-(5-{2-[1-aminoethyl]phenyl}thiophen-2-yl)ethyl]-6,7-dimethoxy-2-methylquinazolin-4-amine]	141	190		
COc1cc2nc(C)nc(NC(C)c3cccc4c3CCO4)c2cc1OC (centres unmarked) [Example 22, N-[1-(2,3-dihydro-1-benzofuran-4-yl)ethyl]-6,7-dimethoxy-2-methylquinazolin-4-amine]	219	589		
COc1cc2nc(C)nc(NC(C)c3ccc4c(c3)OCO4)c2cc1OC (centres unmarked) [Example 23, N-[1-(1,3-benzodioxol-5-yl)ethyl]-6,7-dimethoxy-2-methylquinazolin-4-amine]	1850	8620		
COc1cc2nc(C)nc(NC(C)c3ccc4c(c3)CCO4)c2cc1OC (centres unmarked) [Example 24, N-[1-(2,3-dihydro-1-benzofuran-5-yl)ethyl]-6,7-dimethoxy-2-methylquinazolin-4-amine]	1220	2450		
COc1cc2nc(C)nc(NC(C)c3ccc4c(c3)CCCC4)c2cc1OC (centres unmarked) [Example 25, 6,7-dimethoxy-2-methyl-N-[1-(5,6,7,8-tetrahydronaphthalen-2-yl)ethyl]quinazolin-4-amine]	850	1500		
COc1cc2nc(C)nc(NC(C)c3c(C)nc4ccccn34)c2cc1OC (centres unmarked) [Example 26, 6,7-dimethoxy-2-methyl-N-[1-(2-methylimidazo[1,2-a]pyridin-3-yl)ethyl]quinazolin-4-amine]		6960	52	
COc1cc2nc(C)nc(NC(C)c3csc4ccccc34)c2cc1OC (centres unmarked) [Example 27, N-[1-(1-benzothiophen-3-yl)ethyl]-6,7-dimethoxy-2-methylquinazolin-4-amine]	402	498		
Cc1nc(N[C@H](C)c2ccccc2)c2cc(N=S(C)(C)=O)ccc2n1 [Example 30, 6-{[dimethyl(oxido)-lambda6-sulfanylidene]amino}-2-methyl-N-[(1R)-1-phenylethyl]quinazolin-4-amine]	1100	2910		
Cc1nc(N[C@H](C)c2ccc(F)cc2)c2cc(N=S(C)(C)=O)ccc2n1 [Example 32, 6-{[dimethyl(oxido)-lambda6-sulfanylidene]amino}-N-[(1R)-1-(4-fluorophenyl)ethyl]-2-methylquinazolin-4-amine]	1400	2590		
COc1cc2nc(C)nc(NC(C)c3ccc4c(c3)NC(=O)CO4)c2cc1OC (centres unmarked) [Example 34, 6-{1-[(6,7-dimethoxy-2-methylquinazolin-4-yl)amino]ethyl}-2H-1,4-benzoxazin-3(4H)-one]	3710	16800		
COc1ccc2cc(C(C)Nc3nc(C)nc4cc(OC)c(OC)cc34)ccc2c1 (centres unmarked) [Example 35, 6,7-dimethoxy-N-[1-(6-methoxy-2-naphthyl)ethyl]-2-methylquinazolin-4-amine]	4780			48
COc1cc2nc(C)nc(N[C@H](C)c3cccc(-c4ccc(O)nc4)c3)c2cc1OC [Example 68, 5-(3-{(1R)-1-[(6,7-dimethoxy-2-methylquinazolin-4-yl)amino]ethyl}phenyl)pyridin-2-ol]	486	471		
COc1cc2nc(C)nc(N[C@H](C)c3cccc(-n4cccn4)c3)c2cc1OC [Example 341, 6,7-dimethoxy-2-methyl-N-{(1R)-1-[3-(1H-pyrazol-1-yl)phenyl]ethyl}quinazolin-4-amine]	3730	12200		
COc1cc2nc(C)nc(N[C@H](C)c3cccc(Br)c3)c2cc1OCc1ccccc1 [Example 343, 6-(benzyloxy)-N-[(1R)-1-(3-bromophenyl)ethyl]-7-methoxy-2-methylquinazolin-4-amine]	1610	4330		
COc1cc2nc(C)nc(N[C@H](C)c3cccc(-c4cn[nH]c4)c3)c2cc1OCc1ccccc1 [Example 344, 6-(benzyloxy)-7-methoxy-2-methyl-N-{(1R)-1-[3-(1H-pyrazol-4-yl)phenyl]ethyl}-quinazolin-4-amine]	1190	1860		
COc1cc2nc(C)nc(N[C@H](C)c3cccc(-c4cn[nH]c4)c3)c2cc1O [Example 345, 7-methoxy-2-methyl-4-({(1R)-1-[3-(1H-pyrazol-4-yl)phenyl]ethyl}amino)quinazolin-6-ol]	7840	29400		
COc1cc2nc(C)nc(N[C@H](C)c3cccc(-c4cn[nH]c4)c3)c2cc1OCC1CC1 [Example 346, 6-(cyclopropylmethoxy)-7-methoxy-2-methyl-N-{(1R)-1-[3-(1H-pyrazol-4-yl)phenyl]ethyl}quinazolin-4-amine]	395	576		
COCCOc1cc2c(N[C@H](C)c3cccc(-c4cn[nH]c4)c3)nc(C)nc2cc1OC [Example 348, 7-methoxy-6-(2-methoxyethoxy)-2-methyl-N-{(1R)-1-[3-(1H-pyrazol-4-yl)phenyl]-ethyl}quinazolin-4-amine]	816	753		
CC[C@@H](O)c1ccccc1-c1ccc(C(C)Nc2nc(C)nc3cc(OC)c(OC)cc23)s1 (stereo partly drawn) [Example 349, (1R)-1-[2-(5-{1-[(6,7-dimethoxy-2-methylquinazolin-4-yl)amino]ethyl}thiophen-2-yl)phenyl]propan-1-ol]	649	740		
CCCCOc1cc2c(N[C@H](C)c3cccc(-c4cn[nH]c4)c3)nc(C)nc2cc1OC [Example 350, 6-butoxy-7-methoxy-2-methyl-N-{(1R)-1-[3-(1H-pyrazol-4-yl)phenyl]ethyl}quinazolin-4-amine]	736	850		
COc1cc2nc(C)nc(N[C@H](C)c3cccc(-c4cn[nH]c4)c3)c2cc1OCCC(C)C [Example 351, 7-methoxy-2-methyl-6-(3-methylbutoxy)-N-{(1R)-1-[3-(1H-pyrazol-4-yl)phenyl]ethyl}quinazolin-4-amine]	1200	1310		
COc1cc2nc(C)nc(NC(C)c3ccc(-c4ccccc4CCNC(=O)OC(C)(C)C)s3)c2cc1OC (centres unmarked) [Example 352, tert-butyl {2-[2-(5-{1-[(6,7-dimethoxy-2-methylquinazolin-4-yl)amino]ethyl}thiophen-2-yl)phenyl]ethyl}carbamate]	12200	18200		
